Reference: patent publication US11053204B2, “Pyrimidinyloxy benzene derivatives as herbicides” (FMC Corporation, priority 2015, dated 2021)

Columns and labels:
Assay type in all cases: in vivo
[1] = test system: galium (catchweed bedstraw, Galium aparine); test: Test C preemergence, plant response rating
[2] = test system: johnsongrass (Sorghum halepense); test: Test C preemergence, plant response rating
[3] = test system: barnyardgrass (Echinochloa crus-galli); test: Test C preemergence, plant response rating; settings: Preemergence
[4] = test system: pigweed, palmer (palmer pigweed, Amaranthus palmeri); test: Test C preemergence, plant response rating
kochia (Kochia scoparia) = test: Test C preemergence, plant response rating
[5] = test system: surinam grass (Brachiaria decumbens); test: Test C preemergence, plant response rating
[6] = test system: wild poinsettia (Euphorbia heterophylla); test: Test C preemergence, plant response rating
[7] = test system: windgrass (Apera spica-venti); test: Test C preemergence, plant response rating
[8] = test system: oat, wild (wild oat Avena fatua); test: Test C preemergence, plant response rating
[9] = test system: blackgrass (Alopecurus myosuroides); test: Test C postemergence, plant response rating; settings: for Plant response rating, Blackgrass: scale 0 to 100; for Blackgrass plant response rating: scale 0 to 100 (0 no effect, 100 complete control)
Summary of the method: (§1)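 Visual injury score, 0 = no effect, 100 = complete control, assigned against untreated controls after 13 to 15 d in the greenhouse. Compounds were applied in a surfactant-containing non-phytotoxic solvent mix, preemergence to seeded loam/sand or silt loam soil, or postemergence to 1- to 4-leaf plants (2 to 18 cm).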

[10] = test system: chickweed (common chickweed, Stellaria media); test: Test C postemergence, plant response rating; settings: for Chickweed plant response rating: scale 0 to 100 (0 no effect, 100 complete control)
Summary of the method: as §1

[11] = test system: lambsquarters (Chenopodium album); test: Test C postemergence, plant response rating; settings: for Lambsquarters plant response rating: scale 0 to 100 (0 no effect, 100 complete control)
Summary of the method: as §1

[12] = test system: morningglory (Ipomoea coccinea); test: Test C postemergence, plant response rating; settings: for Morningglory plant response rating: scale 0 to 100 (0 no effect, 100 complete control)
Summary of the method: as §1

[13] = test system: nutsedge, yellow (yellow nutsedge, Cyperus esculentus); test: Test C postemergence, plant response rating; settings: for Nutsedge, Yellow plant response rating: scale 0 to 100 (0 no effect, 100 complete control)
Summary of the method: as §1

[14] = test system: oat, wild (wild oat Avena fatua); test: Test C postemergence, plant response rating; settings: for Oat, Wild plant response rating: scale 0 to 100 (0 no effect, 100 complete control)
Summary of the method: as §1

[15] = test system: ragweed (common ragweed, Ambrosia elatior); test: Test C postemergence, plant response rating; settings: for Ragweed plant response rating: scale 0 to 100 (0 no effect, 100 complete control)
Summary of the method: as §1

[16] = test system: ryegrass, Italian (Italian ryegrass, Lolium multiflorum); test: Test C postemergence, plant response rating; settings: for Ryegrass, Italian plant response rating: scale 0 to 100 (0 no effect, 100 complete control)
Summary of the method: as §1

[17] = test system: velvetleaf (Abutilon theophrasti); test: Test C postemergence, plant response rating
Summary of the method: as §1

[18] = test system: wheat (winter wheat, Triticum aestivum); test: Test C postemergence, plant response rating
Summary of the method: as §1

[19] = 125 g ai/ha, scale 0 to 100 (0 no effect, 100 complete control)

FC(F)(F)CCCc1c(Br)cccc1Oc1ncc(Cl)cn1 [Compound 89]
Plant response rating, Galium ([1]; 31 g ai/ha, scale 0 to 100): 0
Plant response rating, Galium ([1]; 62 g ai/ha, scale 0 to 100): 0
Plant response rating, Galium ([1]; 125 g ai/ha, scale of 0 to 100): 0
Plant response rating, Johnsongrass ([2]; 31 g ai/ha, scale 0 to 100): 40
Plant response rating, Johnsongrass ([2]; 62 g ai/ha, scale 0 to 100): 30
Plant response rating, Johnsongrass ([2]; 125 g ai/ha, scale of 0 to 100): 60
Plant response rating, Barnyardgrass ([3]; 125 g ai/ha, scale of 0 to 100): 100
Plant response rating, Barnyardgrass ([3]; 16 g ai/ha, scale 0 to 100): 5
Plant response rating, Barnyardgrass ([3]; 31 g ai/ha, scale 0 to 100): 35
Plant response rating, Barnyardgrass ([3]; 62 g ai/ha, scale 0 to 100): 90
Plant response rating, Pigweed, Palmer ([4]; 31 g ai/ha, scale 0 to 100): 70
Plant response rating, Pigweed, Palmer ([4]; 62 g ai/ha, scale 0 to 100): 90
Plant response rating, Pigweed, Palmer ([4]; 125 g ai/ha, scale of 0 to 100): 98
Plant response rating, Kochia (kochia (Kochia scoparia); 31 g ai/ha, scale 0 to 100): 60
Plant response rating, Kochia (kochia (Kochia scoparia); 62 g ai/ha, scale 0 to 100): 85
Plant response rating, Kochia (kochia (Kochia scoparia); 125 g ai/ha, scale of 0 to 100): 90
Plant response rating, Surinam Grass ([5]; 31 g ai/ha, scale 0 to 100): 35
Plant response rating, Surinam Grass ([5]; 62 g ai/ha, scale 0 to 100): 65
Plant response rating, Surinam Grass ([5]; 125 g ai/ha, scale of 0 to 100): 75
Plant response rating, Poinsettia, Wild ([6]; 31 g ai/ha, scale 0 to 100): 0
Plant response rating, Poinsettia, Wild ([6]; 62 g ai/ha, scale 0 to 100): 20
Plant response rating, Poinsettia, Wild ([6]; 125 g ai/ha, scale of 0 to 100): 40
Plant response rating, Windgrass ([7]; 31 g ai/ha, scale 0 to 100): 50
Plant response rating, Windgrass ([7]; 62 g ai/ha, scale 0 to 100): 65
Plant response rating, Windgrass ([7]; 125 g ai/ha, scale of 0 to 100): 100
Plant response rating, Oat, Wild ([8]; 31 g ai/ha, scale 0 to 100): 10
Plant response rating, Oat, Wild ([8]; 62 g ai/ha, scale 0 to 100): 30
Plant response rating, Oat, Wild ([8]; 125 g ai/ha, scale of 0 to 100): 10
Plant response rating, Blackgrass ([9]; 16 g ai/ha): 10
Plant response rating, Blackgrass ([9]; 31 g ai/ha): 15
Blackgrass plant response rating ([9]; 62 g ai/ha): 30
Blackgrass plant response rating ([9]; 125 g ai/ha): 45
Plant response rating, Chickweed ([10]; 16 g ai/ha, scale of 0 to 100): 65
Plant response rating, Chickweed ([10]; 31 g ai/ha, scale 0 to 100): 95
Chickweed plant response rating ([10]; 62 g ai/ha): 85
Chickweed plant response rating ([10]; 125 g ai/ha): 100
Plant response rating, Lambsquarters ([11]; 16 g ai/ha, scale of 0 to 100): 70
Plant response rating, Lambsquarters ([11]; 31 g ai/ha, scale 0 to 100): 75
Lambsquarters plant response rating ([11]; 62 g ai/ha): 100
Lambsquarters plant response rating ([11]; 125 g ai/ha): 100
Plant response rating, Morningglory ([12]; 16 g ai/ha, scale of 0 to 100): 5
Plant response rating, Morningglory ([12]; 31 g ai/ha, scale 0 to 100): 15
Morningglory plant response rating ([12]; 62 g ai/ha): 25
Morningglory plant response rating ([12]; 125 g ai/ha): 55
Plant response rating, Nutsedge, Yellow ([13]; 16 g ai/ha, scale of 0 to 100): 0
Plant response rating, Nutsedge, Yellow ([13]; 31 g ai/ha, scale 0 to 100): 0
Nutsedge, Yellow plant response rating ([13]; 62 g ai/ha): 0
Nutsedge, Yellow plant response rating ([13]; 125 g ai/ha): 5
Plant response rating, Oat, Wild ([14]; 16 g ai/ha, scale of 0 to 100): 15
Plant response rating, Oat, Wild ([14]; 31 g ai/ha, scale 0 to 100): 10
Oat, Wild plant response rating ([14]; 62 g ai/ha): 40
Oat, Wild plant response rating ([14]; 125 g ai/ha): 30
Plant response rating, Ragweed ([15]; 16 g ai/ha, scale of 0 to 100): 0
Plant response rating, Ragweed ([15]; 31 g ai/ha, scale 0 to 100): 5
Ragweed plant response rating ([15]; 62 g ai/ha): 10
Ragweed plant response rating ([15]; 125 g ai/ha): 25
Plant response rating, Ryegrass, Italian ([16]; 16 g ai/ha, scale of 0 to 100): 5
Plant response rating, Ryegrass, Italian ([16]; 31 g ai/ha, scale 0 to 100): 5
Ryegrass, Italian plant response rating ([16]; 62 g ai/ha): 5
Ryegrass, Italian plant response rating ([16]; 125 g ai/ha): 10
Plant response rating, Velvetleaf ([17]; 16 g ai/ha, scale of 0 to 100): 20
Plant response rating, Velvetleaf ([17]; 31 g ai/ha, scale 0 to 100): 35
Velvetleaf plant response rating [17, 19]: 70
Plant response rating, Wheat ([18]; 16 g ai/ha, scale of 0 to 100): 0
Plant response rating, Wheat ([18]; 31 g ai/ha, scale 0 to 100): 10
Wheat plant response rating [18, 19]: 15
